According to article PMC4754833, “Rilpivirine analogs potently inhibit drug-resistant HIV-1 mutants” (Retrovirology, 2016):

Experiments:
[1] = tested on: HIV-1 RT mutant K101E/M184I; assay: single round infection assay, K101E/M184I; format: cell-based; details: for IC50: ± SD, n=4; for fold-change of IC50 of the mutant relative to WT: K101E/M184I vs WT
Method: (§1) The human osteosarcoma cell line, HOS, was obtained from Dr. Richard Schwartz (Michigan State University, East Lansing, MI) and grown in Dulbecco’s modified Eagle’s medium (Invitrogen, Carlsbad, CA) supplemented with 5 % (v/v) fetal bovine serum, 5 % newborn calf serum, and penicillin (50 units/ml) plus streptomycin (50 µg/ml; Quality Biological, Gaithersburg, MD). Virion production and single-round infectivity assays were used to determine antiviral activity (IC50 values) of the compounds as previously described.
(§2) pNLNgoMIVR-ΔEnv.LUC has been described previously. The RT open reading frame was removed from pNLNgoMIVR-ΔEnv.LUC (digestion with SpeI and SalI) and inserted between the SpeI and SalI sites of pBluescript II KS+. Using that construct as the wild-type template, we prepared the following HIV-1 RT mutants using the QuikChange II XL (Stratagene, La Jolla, CA) site-directed mutagenesis protocol kit: L100I, K103N, Y181C, Y188L, H221Y, K103N/Y181C, G190A, G190S, M230L, P236L, L100I/K103N, K103N/P225H, V106A/G190A/F227L, V106A, L234I, V106A/F227L, V106A/L234I, V106A/F227L/L234I, E40K, D67E, K101E, V111A, E138K, M184I, M184V, K101E/M184I, K101E/M184V, E138K/M184I, E138K/M184V, K101P, Y181I, and K101P/V179I. The following sense oligonucleotides were used with matching cognate antisense oligonucleotides (not shown) (Integrated DNA Technologies, Coralville, IA) in the mutagenesis: L100I, 5′-[…]-3′; L100I 2-103, 5′-[…]-3′; K103N, 5′-[…]-3′; Y181C, 5′-[…]-3′; Y188L, 5′-[…]-3′; H221Y, 5′-[…]-3′; G190A, 5′-[…]-3′; G190S, 5′-[…]-3′; P225H, 5′-[…]-3′; F227, 5′-[…]-3′; M230L, 5′-[…]-3′; P236L, 5′-[…]-3′; V106A, 5′-[…]-3′; L234I, 5′-[…]-3′; E40K, 5′-[…]-3′; D67E, 5′-[…]-3′; K101E, 5′-[…]-3′; V111A, 5′-[…]-3′; E138K, 5′-[…]-3′; M184I, 5′-[…]-3′; M184V, 5′-[…]-3′; K101P, 5′-[…]-3′; Y181I, 5′-[…]-3′; K101P/V179I, 5′-[…]-3′. The double mutants K103N/Y181C, K103N/P225H, and L100I/K103N were made using the previously generated K103N mutant and the appropriate oligonucleotides to add the second mutation, Y181C, P225, and L100I respectively. The double mutants V106A/F227L and V106A/L234I were prepared using the previously generated V106A mutant and the appropriate oligonucleotides to add the second mutation, F227L and L234I, respectively. The double mutants K101E/M184I and K101E/M184V were constructed using the previously generated K101E mutant and the appropriate oligonucleotides to add the second mutation, M184I and M184V, respectively. The double mutants E138K/M184I and E138K/M184V were constructed using the previously generated E138K mutant and the appropriate oligonucleotides for the second mutation, M184I and M184V, respectively. The triple mutant V106A/F227L/L234I was made using the previously generated V106A/F227L double mutant and the appropriate oligonucleotides for the third mutation, L234I. The triple mutant V106A/G190A/F227L was constructed in a series of steps using the previously generated V106A mutant and the appropriate oligonucleotides for the second mutation, G190A, to generate the double mutant V106A/G190A, and then the triple mutant was made using double mutant V106A/G190A and oligonucleotides for the third mutation, F227L. The DNA sequence of each construct was verified by DNA sequence determination. The sequences encoding the mutant RTs were then subcloned into pNLNgoMIVR-ΔEnv.LUC (between the KpnI and SalI sites) to produce the mutant HIV-1 constructs. These DNA sequences were also checked independently by DNA sequence determination.
(§3) 10.1186/s12977-016-0244-2 The IC50 values (nM) of RPV and the RPV analogs were determined against the NNRTI resistant mutants were measured by using a single round infection assay, n = 4. The concentrations (nM) are measured by reductions in luciferase reporter activity followed by the standard deviations. […]

[2] = tested on: HIV-1 RT mutant D67E; assay: single round infection assay, D67E; format: cell-based; details: for fold-change of IC50 of the mutant relative to WT: D67E vs WT; for IC50: ± SD, n=4
Method: as §1, §2, §3

[3] = tested on: HIV-1 RT mutant Y181C; design: method as in PMID 23217210; details: previous study; cited from earlier work
[4] = tested on: HIV-1 RT mutant V106A/F227L; assay: single round infection assay, V106A/F227L; format: cell-based; details: for fold-change of IC50 of the mutant relative to WT: V106A/F227L vs WT; for IC50: ± SD, n=4
Method: as §1, §2, §3

[5] = tested on: HIV-1 RT mutant L100I/K103N; assay: single round infection assay, L100I/K103N; format: cell-based; details: for fold-change of IC50 of the mutant relative to WT: L100I/K103N vs WT; for IC50: ± SD, n=4, limit of detection 100 nM
Method: as §1, §2, §3

[6] = tested on: HIV-1 RT mutant G190A; assay: single round infection assay, G190A; format: cell-based; details: for IC50: Human immunodeficiency virus 1
Method: as §1, §2, §3

[7] = tested on: HIV-1 RT mutant P236L; assay: single round infection assay, P236L; format: cell-based; details: for IC50: Human immunodeficiency virus 1; for fold-change of IC50 of the mutant relative to WT: P236L vs WT
Method: as §1, §2, §3

[8] = tested on: HIV-1 RT mutant Y181I; assay: single round infection assay, Y181I; format: cell-based; details: for IC50: Human immunodeficiency virus 1; for fold-change of IC50 of the mutant relative to WT: Y181I vs WT
Method: as §1, §2, §3

[9] = tested on: HIV-1 RT mutant V106A/G190A/F227L; assay: single round infection assay, V106A/G190A/F227L; format: cell-based; details: for IC50: Human immunodeficiency virus 1; for fold-change of IC50 of the mutant relative to WT: V106A/G190A/F227L vs WT
Method: as §1, §2, §3

[10] = tested on: HIV-1 RT mutant K101P; assay: single round infection assay, K101P; format: cell-based; details: for IC50: Human immunodeficiency virus 1; for fold-change of IC50 of the mutant relative to WT: K101P vs WT
Method: as §1, §2, §3

[11] = tested on: HIV-1 RT mutant L100I; design: method as in PMID 23217210; details: previous study; cited from earlier work
[12] = tested on: HIV-1 RT mutant E138K/M184V; assay: single round infection assay, E138K/M184V; format: cell-based; details: for fold-change of IC50 of the mutant relative to WT: E138K/M184V vs WT; for IC50: ± SD, n=4
Method: as §1, §2, §3

[13] = tested on: HIV-1 RT mutant E138K; assay: single round infection assay, E138K; format: cell-based; details: for fold-change of IC50 of the mutant relative to WT: E138K vs WT; for IC50: ± SD, n=4
Method: as §1, §2, §3

[14] = Human immunodeficiency virus 1, K101E/M184I
[15] = Human immunodeficiency virus 1, D67E
[16] = Human immunodeficiency virus 1, E138K/M184V
[17] = Human immunodeficiency virus 1, E138K
[18] = Human immunodeficiency virus 1, V106A/F227L (selected by DOR)
[19] = Human immunodeficiency virus 1, L100I/K103N

Compound	IC50 [1, 14]	fold-change of IC50 of the mutant relative to WT [1]	IC50 ([1]; K101E/M184I)	fold-change of IC50 of the mutant relative to WT [2]	IC50 [2, 15]	IC50 [3]	fold-change of IC50 of the mutant relative to WT [4]	fold-change of IC50 of the mutant relative to WT [5]	IC50 [6]	IC50 [7]	IC50 [8]	IC50 [9]	fold-change of IC50 of the mutant relative to WT [9]	IC50 [10]	IC50 [11]	fold-change of IC50 of the mutant relative to WT [12]	IC50 [12, 16]	fold-change of IC50 of the mutant relative to WT [13]	IC50 ([13]; E138K)	IC50 [13, 17]	also measured
Cc1cc(/C=C/C#N)cc(C)c1Nc1nc(Nc2ccc(C#N)cc2)ncc1N [compound 7]	< 2.5 nM	< 2	1.3 ± 0.6 nM	6	4.5 ± 1.1 nM	< 7 nM	< 2	2	0.3 nM	0.22 ± 0.06 nM	19 nM	1.4 ± 0.4 nM	< 2	9 nM	< 7 nM	3	< 2.5 nM	2	1.6 ± 0.07 nM	< 2.5 nM	fold-change of IC50 of the mutant relative to WT [8]: 24; fold-change of IC50 of the mutant relative to WT [10]: 12; IC50 ([12]; E138K/M184V): 2.4 ± 0.2 nM
Cc1cc(/C=C/C#N)cc(C)c1Nc1ncc([N+](=O)[O-])c(Nc2ccc(C#N)cc2)n1 [compound 8]	< 6 nM	4	6 ± 1.6 nM	8	12.7 nM	< 7 nM	4	3	0.24 ± 0.04 nM	0.61 ± 0.07 nM	74.8 nM	2.8 ± 0.42 nM	< 2	9.9 nM	< 7 nM	< 2	–	2	3.4 nM	< 6 nM	IC50 [4, 18]: < 5 nM; IC50 ([4]; V106A/F227L (selected by DOR)): 6.3 ± 2 nM; IC50 [5, 19]: < 5.4 nM; IC50 ([5]; L100I/K103N): 5.4 ± 0.35 nM; fold-change of IC50 of the mutant relative to WT [8]: 47; fold-change of IC50 of the mutant relative to WT [10]: 6
Cc1cc(/C=C/C#N)cc(C)c1Nc1ncc(N)c(Nc2ccc(C#N)cc2)n1 [compound 9]	< 6 nM	3	3.3 ± 0.85 nM	3	< 6 nM	< 7 nM	17	34	0.6 nM	1.7 ± 0.7 nM	> 100 nM	4.6 ± 0.3 nM	4	> 100 nM	< 7 nM	4	< 6 nM	4	5.6 ± 1.4 nM	< 6 nM	IC50 ([2]; D67E): 4.2 ± 0.8 nM; IC50 [5, 19]: 44.1 nM; fold-change of IC50 of the mutant relative to WT [7]: < 2; IC50 ([12]; E138K/M184V): 5.5 ± 1 nM
COc1ccc(Cn2cnc3c(Nc4ccc(C#N)cc4)nc(Nc4c(C)cc(/C=C/C#N)cc4C)nc32)cc1 [compound 12]	2.7 ± 0.71 nM	4	–	43	29 ± 6.9 nM	< 7 nM	11	6	0.9 ± 0.43 nM	0.8 ± 0.2 nM	> 100 nM	5.9 ± 0.14 nM	9	> 100 nM	< 7 nM	7	4.9 ± 0.99 nM	12	–	7.8 ± 0.64 nM	IC50 [4, 18]: < 5 nM; IC50 ([4]; V106A/F227L (selected by DOR)): 7.6 ± 0.5 nM; IC50 [5, 19]: < 5.4 nM; IC50 ([5]; L100I/K103N): 4.3 ± 2.6 nM; fold-change of IC50 of the mutant relative to WT ([6]; G190A vs WT): < 2; fold-change of IC50 of the mutant relative to WT [7]: < 2
